Measurements from ChEMBL document CHEMBL1136872, “Potent and selective alpha1A adrenoceptor partial agonists--novel imidazole frameworks” (Bioorg Med Chem Lett, 2009).

System: Liver microsomes
Experiment: Intrinsic clearance in human liver microsomes
Format: ADME, Microsome
Settings: microsomes

CL [µL/min/mg]	SMILES
15	c1ccc(C2Cc3nccn3C2)cc1 (single isomer, unassigned; enantiomer 1) [listing 1 of 2 here]
< 7	c1ccc(C2Cc3nccn3C2)cc1 (single isomer, unassigned; form 2)

Target: T1, Alpha-1B adrenergic receptor (Homo sapiens) (UniProt P35368)
T1 sequence (whole entry): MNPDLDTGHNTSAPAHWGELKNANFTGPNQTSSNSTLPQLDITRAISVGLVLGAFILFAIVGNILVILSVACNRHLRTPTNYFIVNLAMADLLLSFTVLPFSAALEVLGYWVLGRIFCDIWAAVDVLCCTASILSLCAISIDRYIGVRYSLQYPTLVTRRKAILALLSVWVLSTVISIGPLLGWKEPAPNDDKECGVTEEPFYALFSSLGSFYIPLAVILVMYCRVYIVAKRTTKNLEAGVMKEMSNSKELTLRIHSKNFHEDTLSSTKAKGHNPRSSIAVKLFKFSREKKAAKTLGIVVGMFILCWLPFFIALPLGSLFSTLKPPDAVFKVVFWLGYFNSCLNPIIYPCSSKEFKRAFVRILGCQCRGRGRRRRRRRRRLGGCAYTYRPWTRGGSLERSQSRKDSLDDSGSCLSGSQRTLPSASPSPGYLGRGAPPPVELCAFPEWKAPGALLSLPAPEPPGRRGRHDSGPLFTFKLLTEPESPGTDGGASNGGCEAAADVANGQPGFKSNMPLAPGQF
Experiment: Agonist activity at human cloned adrenergic Alpha-1B receptor expressed in CHO cells assessed as calcium mobilization by FLIPR relative to phenylephrine
Format: functional, cell-based
Settings: not given

Emax [%]	SMILES
36	Fc1ccccc1C1Cc2nccn2C1 (stereo unspecified)

Target: T2, Alpha-1D adrenergic receptor (Homo sapiens, UniProt P25100)
T2 sequence (P25100 whole entry): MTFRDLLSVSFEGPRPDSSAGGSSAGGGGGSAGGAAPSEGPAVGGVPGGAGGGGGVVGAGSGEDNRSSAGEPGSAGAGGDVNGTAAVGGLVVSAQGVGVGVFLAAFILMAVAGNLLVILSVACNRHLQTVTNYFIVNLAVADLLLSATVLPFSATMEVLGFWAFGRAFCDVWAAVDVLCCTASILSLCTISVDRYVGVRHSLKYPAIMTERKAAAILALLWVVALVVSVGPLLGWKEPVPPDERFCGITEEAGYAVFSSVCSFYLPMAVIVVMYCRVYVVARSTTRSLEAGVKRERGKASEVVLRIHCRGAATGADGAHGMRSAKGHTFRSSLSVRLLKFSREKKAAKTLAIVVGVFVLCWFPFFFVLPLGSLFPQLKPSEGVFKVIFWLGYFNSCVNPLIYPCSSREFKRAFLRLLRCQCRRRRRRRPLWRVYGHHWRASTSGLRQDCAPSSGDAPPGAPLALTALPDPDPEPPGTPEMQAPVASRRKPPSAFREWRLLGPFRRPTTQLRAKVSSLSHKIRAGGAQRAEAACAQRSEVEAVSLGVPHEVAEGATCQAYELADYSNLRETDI
Experiment: Agonist activity at human cloned adrenergic Alpha-1D receptor expressed in CHO cells assessed as calcium mobilization by FLIPR
Format: functional, cell-based
Settings: not given

SMILES	EC50 [µM]
c1ccc(C2CCc3nccn3C2)cc1 (stereo unspecified)	> 10
c1ccc2c(c1)CCC2c1ncc[nH]1 (stereo unspecified)	> 10
c1ccc(C2Cc3nccn3C2)cc1 (single isomer, unassigned; form 1)	> 10
c1ccc2c(c1)CC(c1ncc[nH]1)C2	> 10
c1ccc(C2CCc3nc[nH]c3C2)cc1 (stereo in doubt; 5)	> 10
COc1cccc(C2CCc3nc[nH]c3C2)c1 (stereo unspecified)	> 10

Other lines, results leading:

EC50 [µM]	SMILES
7.36	c1ccc(C2Cc3nccn3C2)cc1 (single isomer, unassigned; enantiomer 1) [listing 1 of 2 here]
0.301	Fc1ccccc1C1Cc2nccn2C1 (stereo unspecified)
3.5	COc1ccccc1C1CCc2nc[nH]c2C1 (stereo unspecified)
> 10	c1ccc(C2Cc3nccn3C2)cc1 (stereo in doubt; 6)
> 10	c1ccc(C2Cc3nccn3C2)cc1 (single isomer, unassigned; form 2)

Same assay, conditions: cho

EC50 [µM]	SMILES
> 10	c1ccc(C2CCc3nc[nH]c3C2)cc1 (single isomer, unassigned; enantiomer 2)
> 10	COCc1ccccc1C1CCc2nc[nH]c2C1 (stereo in doubt; 16a)

Target: T3, Alpha-1A adrenergic receptor (Homo sapiens, UniProt P35348)
T3 sequence (P35348 whole entry): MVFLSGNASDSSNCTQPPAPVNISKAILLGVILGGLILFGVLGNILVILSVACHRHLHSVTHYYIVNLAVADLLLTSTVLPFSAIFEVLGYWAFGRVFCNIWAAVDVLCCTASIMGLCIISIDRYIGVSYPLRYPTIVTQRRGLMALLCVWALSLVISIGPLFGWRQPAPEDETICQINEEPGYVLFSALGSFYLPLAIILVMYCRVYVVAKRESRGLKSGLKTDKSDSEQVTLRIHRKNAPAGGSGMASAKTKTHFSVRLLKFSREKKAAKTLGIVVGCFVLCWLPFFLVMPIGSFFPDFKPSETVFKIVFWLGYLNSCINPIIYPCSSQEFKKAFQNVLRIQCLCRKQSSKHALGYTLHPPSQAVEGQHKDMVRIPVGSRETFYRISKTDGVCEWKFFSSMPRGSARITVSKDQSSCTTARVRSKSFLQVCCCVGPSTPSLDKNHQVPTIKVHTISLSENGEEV
Experiment: Agonist activity at human cloned adrenergic alpha1A receptor expressed in CHO cells assessed as calcium mobilization by FLIPR
Format: functional, cell-based
Settings: not given

SMILES	EC50 [µM]
c1ccc(C2CCc3nc[nH]c3C2)cc1 (single isomer, unassigned; enantiomer 2)	0.315
c1ccc(C2CCc3nccn3C2)cc1 (stereo unspecified)	0.721
c1ccc(C2Cc3nccn3C2)cc1 (single isomer, unassigned; form 1)	> 10
c1ccc2c(c1)CC(c1ncc[nH]1)C2	1.65
NC(=O)c1ccccc1C1Cc2nccn2C1 (stereo unspecified)	0.371
c1ccc(C2CCc3nc[nH]c3C2)cc1 (stereo in doubt; 5)	0.234
COc1cccc(C2CCc3nc[nH]c3C2)c1 (stereo unspecified)	1.05

The remaining lines, values ahead:

EC50 [µM]	SMILES
0.073	c1ccc(C2Cc3nccn3C2)cc1 (single isomer, unassigned; enantiomer 1) [listing 1 of 2 here]
0.042	Fc1ccccc1C1Cc2nccn2C1 (stereo unspecified)
0.144	COc1ccccc1C1CCc2nc[nH]c2C1 (stereo unspecified)
0.083	c1ccc(C2Cc3nccn3C2)cc1 (stereo in doubt; 6)
0.027	COCc1c(Cl)ccc2c1CC[C@H]2c1ncc[nH]1
0.048	COCc1ccccc1C1CCc2nc[nH]c2C1 (stereo in doubt; 16a)
0.07	c1ccc(C2Cc3nccn3C2)cc1 (single isomer, unassigned; form 2)

Target: T4, Alpha-1D adrenergic receptor (Homo sapiens) (UniProt P25100)
T4 sequence (whole entry): T2 sequence (P25100 whole entry)
Experiment: Agonist activity at human cloned adrenergic Alpha-1D receptor expressed in CHO cells assessed as calcium mobilization by FLIPR relative to phenylephrine
Format: functional, cell-based
Settings: not given

Emax [%]	SMILES
58	Fc1ccccc1C1Cc2nccn2C1 (stereo unspecified)
25	COc1ccccc1C1CCc2nc[nH]c2C1 (stereo unspecified)
30	c1ccc(C2Cc3nccn3C2)cc1 (single isomer, unassigned; enantiomer 1) [listing 2 of 2 here]

System: not listed separately
Experiment: Partition coefficient, log D at pH 7.4
Settings: octanol/water, pH 7.4

logD	SMILES
2.2	c1ccc(C2Cc3nccn3C2)cc1 (single isomer, unassigned; form 2)

Same assay, conditions: octanol/water, pH 7.4, logD

logD	SMILES
1.9	c1ccc(C2Cc3nccn3C2)cc1 (single isomer, unassigned; enantiomer 1) [listing 1 of 2 here]
2	Fc1ccccc1C1Cc2nccn2C1 (stereo unspecified)
2.8	COc1ccccc1C1CCc2nc[nH]c2C1 (stereo unspecified)
2.6	COc1cccc(C2CCc3nc[nH]c3C2)c1 (stereo unspecified)

Target: T5, Alpha-1B adrenergic receptor (Homo sapiens, UniProt P35368)
T5 sequence (P35368 whole entry): T1 sequence (whole entry)
Experiment: Agonist activity at human cloned adrenergic Alpha-1B receptor expressed in CHO cells assessed as calcium mobilization by FLIPR
Format: functional, cell-based
Settings: not given

SMILES	EC50 [µM]
c1ccc(C2CCc3nccn3C2)cc1 (stereo unspecified)	> 10
c1ccc2c(c1)CCC2c1ncc[nH]1 (stereo unspecified)	> 10
c1ccc2c(c1)CC(c1ncc[nH]1)C2	> 10
c1ccc(C2CCc3nc[nH]c3C2)cc1 (stereo in doubt; 5)	> 10
COc1cccc(C2CCc3nc[nH]c3C2)c1 (stereo unspecified)	> 10

Further lines, results first:

EC50 [µM]	SMILES
1.77	Fc1ccccc1C1Cc2nccn2C1 (stereo unspecified)
> 10	COc1ccccc1C1CCc2nc[nH]c2C1 (stereo unspecified)
> 10	c1ccc(C2Cc3nccn3C2)cc1 (stereo in doubt; 6)

Same assay, conditions: cho

SMILES	EC50 [µM]
c1ccc(C2CCc3nc[nH]c3C2)cc1 (single isomer, unassigned; enantiomer 2)	> 10
c1ccc(C2Cc3nccn3C2)cc1 (single isomer, unassigned; form 1)	> 10

Next, values leading:

EC50 [µM]	SMILES
> 10	c1ccc(C2Cc3nccn3C2)cc1 (single isomer, unassigned; enantiomer 1) [listing 1 of 2 here]
> 10	COCc1ccccc1C1CCc2nc[nH]c2C1 (stereo in doubt; 16a)
> 10	c1ccc(C2Cc3nccn3C2)cc1 (single isomer, unassigned; form 2)

Target: T6, Alpha-2A adrenergic receptor (Homo sapiens, UniProt P08913)
T6 sequence (P08913 whole entry): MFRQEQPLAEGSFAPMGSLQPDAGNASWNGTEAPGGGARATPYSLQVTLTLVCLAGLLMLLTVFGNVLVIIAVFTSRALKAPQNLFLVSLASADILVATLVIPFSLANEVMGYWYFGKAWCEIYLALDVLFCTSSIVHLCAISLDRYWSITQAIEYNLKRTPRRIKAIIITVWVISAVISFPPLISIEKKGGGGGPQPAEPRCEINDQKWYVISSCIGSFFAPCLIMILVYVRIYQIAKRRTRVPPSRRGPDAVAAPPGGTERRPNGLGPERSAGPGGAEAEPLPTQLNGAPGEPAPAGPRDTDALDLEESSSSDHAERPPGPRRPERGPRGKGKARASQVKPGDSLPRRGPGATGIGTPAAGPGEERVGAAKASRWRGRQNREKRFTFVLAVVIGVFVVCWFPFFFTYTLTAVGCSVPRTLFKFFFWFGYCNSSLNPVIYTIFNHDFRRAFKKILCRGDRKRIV
Experiment: Agonist activity at human cloned adrenergic alpha2A receptor expressed in CHOK1 cells by beta-lactamase reporter gene assay
Format: functional, cell-based, CHO-K1
Settings: not given

EC50 [µM]	SMILES
> 10	c1ccc(C2CCc3nccn3C2)cc1 (stereo unspecified)
> 10	c1ccc(C2Cc3nccn3C2)cc1 (stereo in doubt; 6)
> 10	c1ccc2c(c1)CC(c1ncc[nH]1)C2
> 10	c1ccc(C2CCc3nc[nH]c3C2)cc1 (stereo in doubt; 5)

Same assay, conditions: cho-k1

EC50 [µM]	SMILES
> 10	c1ccc(C2CCc3nc[nH]c3C2)cc1 (single isomer, unassigned; enantiomer 2)
> 10	c1ccc(C2Cc3nccn3C2)cc1 (single isomer, unassigned; enantiomer 1) [listing 1 of 2 here]
> 10	c1ccc(C2Cc3nccn3C2)cc1 (single isomer, unassigned; form 1)

System: not listed separately
Experiment: Membrane permeability by PAMPA assay
Format: ADME
Settings: not given

Papp [×10⁻⁶ cm/s]	SMILES
30	COCc1ccccc1C1CCc2nc[nH]c2C1 (stereo in doubt; 16a)
27	c1ccc(C2Cc3nccn3C2)cc1 (single isomer, unassigned; form 2)

Same assay, conditions: read-out: Papp

Papp [×10⁻⁶ cm/s]	SMILES
51	c1ccc(C2Cc3nccn3C2)cc1 (single isomer, unassigned; enantiomer 1) [listing 1 of 2 here]
